The subject of the experiment is secretory IgA and serum IgG antibodies. The experiment is described as follows: Oral immunization with OVA nanoparticles, ELISA of secretory IgA and serum IgG antibodies. It is filed as in vivo, male Sprague-Dawley adult rats. Conditions: immunizations at week 0 and week 4. How it is done: Once the particles were generated and washed they were introduced orally into experimental animals (male Sprague-Dawley adult rats (200-250 g wt., 12-15 weeks old, Harlow). Ten animals were used for each group. About 1 mg of dry weight of nanoparticles in the reaction mixture has been administered orally into the stomach of each animal. The nonloaded (#8) nanoparticles were also administered to control animals, in addition to a soluble antigen (OVA)(#9). ELISA assay of secretory IgA and serum IgG antibodies was carried out as described [Challacombe, et al., Enhanced secretory IgA and systemic IgG antibody response after oral immunization with biodegradable microcapsules containing antigen. Immunology 76: 164-168 (1992)]. Primary and secondary immunization protocol was used, consisting of two immunizations at week 0 and at week 4. […] In another set of experiments nonloaded nanoparticles (no OVA) were separately tested in simulated gastric (pH 2) and intestinal (pH 8.3) solutions for their stability. […] Similar results in terms of antibodies and release characteristics were obtained for tetanus toxoid antigen.
In general terms: In an ELISA, binding on a coated surface is turned into a signal by an enzyme label.

In the case of “ovalbumin (egg albumin) [Sol OVA, soluble ovalbumin antigen from Sigma]”, the “Response to oral delivery of nanoparticulate OVA antigen, Mean” value is 75.0 (Day 28, rats) and 550.0 (Day 56, rats).
